Several values for one entry are separate records, joined by “and”; a condition that tells them apart may be missing. Equal entries are not always repeated.
System: 743489-274-T-PDC complex spheroid growth
Test: Anticancer human tumor 743489-274-T-PDC patient-derived renal cell carcinoma cell line growth inhibition [AhR]
Settings: for viability, T/C: stronger effect = lower value
Procedure, shortened: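 Agents were dosed in half-log steps down from roughly clinical Cmax, or from 10 microM where Cmax was unknown, alone and with AhR antagonists. Read-out: percent test/control growth of tumor spheroids containing HUVEC and MSC stromal cells.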

[1] = curve of first compound, second compound 0.1 µM
[2] = curve of first compound, second compound 0.316 µM
[3] = curve of first compound, second compound 1 µM
[4] = curve of first compound, second compound 3.16 µM
[5] = curve of first compound, second compound 10 µM
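Also: spheroids exposed to agents for 7 days before readout.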
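For viability, T/C in this document: 100% = DMSO vehicle control wells.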

For CCc1c2c(nc3ccc(O)cc13)-c1cc3c(c(=O)n1C2)COC(=O)[C@]3(O)CC + Cc1ccccc1N=Nc1ccc(NC(=O)c2ccnn2C)c(C)c1, which IC50 [1] is on record?
The IC50 was greater than 0.3 µM.

And the IC50 [2]?
Its IC50 is greater than 0.3 µM.

What about the IC50 [3] of the same compound?
Its IC50 is 0.238 µM.

And the IC50 [4]?
Its IC50 is greater than 0.3 µM.

What about the IC50 [5] of the same compound?
Its IC50 is 0.0862 µM.

And the viability, T/C (second compound 0.1 µM, first compound 0.000949 µM)?
The viability, T/C was 79.7%.

And the viability, T/C (second compound 0.1 µM, first compound 0.003 µM)?
The viability, T/C was 94.1%.

What about the viability, T/C (second compound 0.1 µM, first compound 0.00949 µM) of the same compound?
Its viability, T/C is 89.5%.

What about the viability, T/C (second compound 0.1 µM, first compound 0.03 µM) of the same compound?
Its viability, T/C is 76.1%.

What about the viability, T/C (second compound 0.1 µM, first compound 0.0949 µM) of the same compound?
Its viability, T/C is 59.2%.

What about the viability, T/C (second compound 0.1 µM, first compound 0.3 µM) of the same compound?
The viability, T/C was 55.1%.

What about the viability, T/C (second compound 0.316 µM, first compound 0.000949 µM) of the same compound?
The viability, T/C was 83.4%.

And the viability, T/C (second compound 0.316 µM, first compound 0.003 µM)?
The viability, T/C was 89.2%.

What about the viability, T/C (second compound 0.316 µM, first compound 0.00949 µM) of the same compound?
Its viability, T/C is 94.8%.

What about the viability, T/C (second compound 0.316 µM, first compound 0.03 µM) of the same compound?
The viability, T/C was 71.2%.

And the viability, T/C (second compound 0.316 µM, first compound 0.0949 µM)?
The viability, T/C was 54.9%.

What about the viability, T/C (second compound 0.316 µM, first compound 0.3 µM) of the same compound?
Its viability, T/C is 50%.

What about the viability, T/C (second compound 1 µM, first compound 0.000949 µM) of the same compound?
The viability, T/C was 90.2%.

What about the viability, T/C (second compound 1 µM, first compound 0.003 µM) of the same compound?
Its viability, T/C is 93.2%.

What about the viability, T/C (second compound 1 µM, first compound 0.00949 µM) of the same compound?
The viability, T/C was 79.6%.

And the viability, T/C (second compound 1 µM, first compound 0.03 µM)?
The viability, T/C was 72.1%.

What about the viability, T/C (second compound 1 µM, first compound 0.0949 µM) of the same compound?
Its viability, T/C is 60%.

What about the viability, T/C (second compound 1 µM, first compound 0.3 µM) of the same compound?
The viability, T/C was 47.3%.

What about the viability, T/C (second compound 3.16 µM, first compound 0.000949 µM) of the same compound?
The viability, T/C was 85.1%.

And the viability, T/C (second compound 3.16 µM, first compound 0.003 µM)?
The viability, T/C was 88.9%.

And the viability, T/C (second compound 3.16 µM, first compound 0.00949 µM)?
The viability, T/C was 80.7%.

What about the viability, T/C (second compound 3.16 µM, first compound 0.03 µM) of the same compound?
Its viability, T/C is 62.8%.

And the viability, T/C (second compound 3.16 µM, first compound 0.0949 µM)?
The viability, T/C was 57.8%.

What about the viability, T/C (second compound 3.16 µM, first compound 0.3 µM) of the same compound?
Its viability, T/C is 50.2%.

What about the viability, T/C (second compound 10 µM, first compound 0.000949 µM) of the same compound?
Its viability, T/C is 85.4%.

What about the viability, T/C (second compound 10 µM, first compound 0.003 µM) of the same compound?
The viability, T/C was 84.7%.

And the viability, T/C (second compound 10 µM, first compound 0.00949 µM)?
Its viability, T/C is 76.8%.

And the viability, T/C (second compound 10 µM, first compound 0.03 µM)?
Its viability, T/C is 60%.

What about the viability, T/C (second compound 10 µM, first compound 0.0949 µM) of the same compound?
Its viability, T/C is 50.2%.

What about the viability, T/C (second compound 10 µM, first compound 0.3 µM) of the same compound?
Its viability, T/C is 44.7%.

What does the source list for Cn1ncnc1C1c2n[nH]c(=O)c3cc(F)cc(c23)NC1c1ccc(F)cc1 (configuration not stated)?
viability, T/C (compound 0.000316 µM): 100% and 101% and 102%; viability, T/C (compound 0.001 µM): 105% and 111% and 108%; viability, T/C (compound 0.00316 µM): 95.8% and 107% and 98.2%; viability, T/C (compound 0.01 µM): 91.2% and 103% and 108%; viability, T/C (compound 0.0316 µM): 97.2% and 95.4% and 95.6%; viability, T/C (compound 0.1 µM): 103% and 94% and 99.3%; IC50 (curve of compound): > 0.1 µM

Cn1ncnc1C1c2n[nH]c(=O)c3cc(F)cc(c23)NC1c1ccc(F)cc1 (configuration not stated) + Cc1ccccc1N=Nc1ccc(NC(=O)c2ccnn2C)c(C)c1 was tested. Which IC50 [1] did it give?
The IC50 was greater than 0.1 µM.

And the IC50 [2]?
Its IC50 is greater than 0.1 µM.

What about the IC50 [3] of the same compound?
The IC50 was greater than 0.1 µM.

And the IC50 [4]?
The IC50 was greater than 0.1 µM.

And the IC50 [5]?
Its IC50 is greater than 0.1 µM.

And the viability, T/C (second compound 0.1 µM, first compound 0.000316 µM)?
The viability, T/C was 97.3%.

What about the viability, T/C (second compound 0.1 µM, first compound 0.001 µM) of the same compound?
The viability, T/C was 106%.

What about the viability, T/C (second compound 0.1 µM, first compound 0.00316 µM) of the same compound?
The viability, T/C was 101%.

What about the viability, T/C (second compound 0.1 µM, first compound 0.01 µM) of the same compound?
The viability, T/C was 101%.

And the viability, T/C (second compound 0.1 µM, first compound 0.0316 µM)?
The viability, T/C was 103%.

And the viability, T/C (second compound 0.1 µM, first compound 0.1 µM)?
Its viability, T/C is 90.2%.

And the viability, T/C (second compound 0.316 µM, first compound 0.000316 µM)?
The viability, T/C was 98.2%.

And the viability, T/C (second compound 0.316 µM, first compound 0.001 µM)?
The viability, T/C was 107%.

And the viability, T/C (second compound 0.316 µM, first compound 0.00316 µM)?
The viability, T/C was 89%.

And the viability, T/C (second compound 0.316 µM, first compound 0.01 µM)?
The viability, T/C was 98.9%.

And the viability, T/C (second compound 0.316 µM, first compound 0.0316 µM)?
The viability, T/C was 97.8%.

And the viability, T/C (second compound 0.316 µM, first compound 0.1 µM)?
The viability, T/C was 88.8%.

And the viability, T/C (second compound 1 µM, first compound 0.000316 µM)?
The viability, T/C was 105%.

What about the viability, T/C (second compound 1 µM, first compound 0.001 µM) of the same compound?
Its viability, T/C is 92.1%.

What about the viability, T/C (second compound 1 µM, first compound 0.00316 µM) of the same compound?
Its viability, T/C is 100%.

And the viability, T/C (second compound 1 µM, first compound 0.01 µM)?
The viability, T/C was 96.7%.

What about the viability, T/C (second compound 1 µM, first compound 0.0316 µM) of the same compound?
Its viability, T/C is 106%.

What about the viability, T/C (second compound 1 µM, first compound 0.1 µM) of the same compound?
Its viability, T/C is 92.5%.

And the viability, T/C (second compound 3.16 µM, first compound 0.000316 µM)?
The viability, T/C was 93.3%.

What about the viability, T/C (second compound 3.16 µM, first compound 0.001 µM) of the same compound?
The viability, T/C was 106%.

What about the viability, T/C (second compound 3.16 µM, first compound 0.00316 µM) of the same compound?
Its viability, T/C is 97.7%.

And the viability, T/C (second compound 3.16 µM, first compound 0.01 µM)?
The viability, T/C was 91%.

What about the viability, T/C (second compound 3.16 µM, first compound 0.0316 µM) of the same compound?
Its viability, T/C is 94.1%.

What about the viability, T/C (second compound 3.16 µM, first compound 0.1 µM) of the same compound?
Its viability, T/C is 102%.

What about the viability, T/C (second compound 10 µM, first compound 0.000316 µM) of the same compound?
Its viability, T/C is 99.8%.

What about the viability, T/C (second compound 10 µM, first compound 0.001 µM) of the same compound?
The viability, T/C was 101%.

And the viability, T/C (second compound 10 µM, first compound 0.00316 µM)?
The viability, T/C was 103%.

And the viability, T/C (second compound 10 µM, first compound 0.01 µM)?
Its viability, T/C is 92.2%.

And the viability, T/C (second compound 10 µM, first compound 0.0316 µM)?
Its viability, T/C is 89.4%.

And the viability, T/C (second compound 10 µM, first compound 0.1 µM)?
Its viability, T/C is 103%.
